The values below come from PMC12169679 (Journal of Medicinal Chemistry, 2025).

Structures are written as SMILES.

The conditions of data set [1]: PAMPA.
Data set [2] in a line: in vitro. The note with it: PAMPA, pH 7.4.
Data set [3] relates to VeroE6 cells. The note with it: cited from earlier work.
The subject of data set [4] is wild-type EBOV (Orthoebolavirus zairense, Mayinga variant). To be noted: for EC50: read-out: EC50 (EBOV).
For data set [5], the system named is EBOV-GP-pseudotype virus (pEBOV). To be noted: cited from earlier work.
The test system is the same in data set [6].
Data set [7] shares this test system. The experiment in a line: microbe, parasite or virus in culture. To be noted: Zaire ebolavirus; for inhibition at 10 µM: Vero C1008, read-out: %inh@10 μM (pEBOV); for EC50: Vero C1008, read-out: EC50 (pEBOV).
A short description of data set [8]: in vitro. To be noted: for CC50: African green monkey; for CC50 at 24 h: chlorocebus sabaeus.
The conditions of data set [9]: pH 7.4.
The subject of data set [10] is VSV-G-pseudotype virus (pVSV-G). In words: microbe, parasite or virus in culture. Type of data set: cell-based. To be noted: Vesicular stomatitis virus; read-out: %inh@10µM (pVSV-G).
For data set [11] the following is noted: CD-1, mouse, pH 7.4.
The nature of data set [12]: in vitro. The note with it: human, microsomes, pH 7.4.
Data set [13] is described as follows: in vitro. To be noted: CD-1, mouse, microsomes, pH 7.4.
Data set [14] has as its target EBOV-GP protein (Zaire ebolavirus, UniProt Q05320). Type of data set: binding, Ebola virus.
Data set [15] concerns the target EBOV-GPcl/NPC1-domain C interaction (Zaire ebolavirus, UniProt Q05320). Type of data set: binding. The note with it: 50 μM.

As to `Cn1c(=O)c2c(ncn2C)n(C)c1=O` [Caffeine, reference compound], the “prediction of CNS penetration” value in [1] is recorded as “CNS−”. Further, the Papp in data set [2] is 1.5 ± 0.3 ×10⁻⁶ cm/s.
For `CCn1cc(C(=O)O)c(=O)c2cc(F)c(N3CCNCC3)nc21` [Enoxacin, reference compound] the same measures were “CNS−” and 1.2 ± 0.2 ×10⁻⁶ cm/s.
For the compound `NC(=O)c1nc(F)c[nH]c1=O` [Favipiravir, reference compound], the CC50 in [3] was greater than 1000 µM.
As for `CN1C(C(=O)Nc2ccccn2)=C(O)c2ccccc2S1(=O)=O` [Piroxicam, reference compound], in [1], the “prediction of CNS penetration” value is on record as “CNS−”. The same compound registered a Pe in data set [1] (pH 7.4) of 1.6 ± 0.7.
For `CN(C)CCCN1c2ccccc2Sc2ccccc21` [Promazine, reference compound], the “prediction of CNS penetration” value in data set [1] is “CNS+”. Besides, the apparent permeability (Papp) in data set [2] came out at 9.1 ± 1.3 ×10⁻⁶ cm/s.
`O=C(CN1CCCC1)NNc1ccccc1Sc1cc(Cl)ccc1[N+](=O)[O-]` [SC073]: the CC50 in [3] is 80 µM. Further, in data set [1], the “prediction of CNS penetration” value is “SNC +”. Besides, in data set [4], the “SI (CC50/EC50), replicative EBOV” value is on record as 18.6 and the EC50 turned out to be 4.3 µM. In addition, the “SI (CC50/EC50) of the hits, pEBOV” value in [5] is listed as 27.5.
For `CCN(CC)CC(=O)NNc1ccccc1Sc1cc(Cl)ccc1[N+](=O)[O-]` [SC198], the CC50 in data set [3] was 50 µM. Further, the “prediction of CNS penetration” value in [1] is reported as “SNC +”. In [4], the “SI (CC50/EC50), replicative EBOV” value is 8.3 and the EC50 worked out at 6 µM. Besides, the “SI (CC50/EC50) of the hits, pEBOV” value in [5] is on record as 12.4.
On to `O=C(CN1CCCC1)Nc1ccccc1Sc1cc(Cl)ccc1[N+](=O)[O-]` [compound 7, N-(2-((5-Chloro-2-nitrophenyl)thio)phenyl)-2-(pyrrolidin-1-yl)acetamide], for which the “antiviral activity against pEBOV, in words” value (from here on “antiviral activity”) in [6] is “inactive”. Besides, in data set [4], the “EC50 (EBOV)” value is “inactive”. For the same compound, in data set [7], the inhibition at 10 µM is -2%. The CC50 in [8] is greater than 200 µM.
With `CCN(CC)CC(=O)Nc1ccccc1Sc1cc(Cl)ccc1[N+](=O)[O-]` [compound 8, N-(2-((5-Chloro-2-nitrophenyl)thio)phenyl)-2-(diethylamino)acetamide], the “antiviral activity” value in data set [6] is “inactive”. The inhibition at 10 µM in data set [7] is -5%. In addition, in data set [8], the CC50 is greater than 200 µM.
Taken in the same sequence, the figures for `O=C(CN1CCCCC1)Nc1ccccc1Sc1cc(Cl)ccc1[N+](=O)[O-]` [compound 9, N-(2-((5-Chloro-2-nitrophenyl)thio)phenyl)-2-(piperidin-1-yl)acetamide] were “no activity”, -10% and greater than 200 µM.
Taken in the same sequence, the figures for `O=C(CNCc1ccccc1)Nc1ccccc1Sc1cc(Cl)ccc1[N+](=O)[O-]` [compound 10, 2-(Benzylamine)-N-(2-((5-chloro-2-nitrophenyl)thio)phenyl)acetamide] were “no activity”, 18% and greater than 200 µM.
For the compound `O=C(CNCCC1CCN(Cc2ccccc2)CC1)Nc1ccccc1Sc1cc(Cl)ccc1[N+](=O)[O-]` [compound 11, 2-((2-(1-Benzylpiperidin-4-yl)ethyl)amino)-N-(2-((5-chloro-2-nitrophenyl)thio)phenyl)acetamide], the “prediction of CNS penetration” value in data set [1] is given as “SNC +”. Besides, the “metabolic stability in human liver microsomes CLint” value in data set [9] worked out at 25 ± 4 mL/min/mg protein. In addition, the inhibition at 10 µM in data set [10] came to 38%. The “SI (pEBOV) (CC50/EC50)” value in data set [6] came out at 26.7. Further, the “metabolic stability in mouse liver microsomes CLint” value in data set [11] amounted to 390 ± 70 mL/min/mg protein. The “SI (CC50/EC50), replicative EBOV” value in data set [4] stood at 28.8. Besides, the values for the concentration for a half-maximal effect (EC50) in data set [4] and in data set [7] were 5.2 µM and 5.61 µM, respectively. Also, the CC50 at 24 h in [8] turned out to be 150 µM. Besides, the values for the half-life at 10 µM in data set [12] and in data set [13] were 23 ± 4 min and 6 ± 1 min, respectively.
Regarding `O=C(CCN1CCCC1)Nc1ccccc1Sc1cc(Cl)ccc1[N+](=O)[O-]` [compound 12, N-(2-((5-Chloro-2-nitrophenyl)thio)phenyl)-3-(pyrrolidin-1-yl)propanamide], the “prediction of CNS penetration” value in data set [1] was “SNC +”. Further, the “metabolic stability in human liver microsomes CLint” value in data set [9] was 12.5 ± 0.6 mL/min/mg protein. For the same compound, the inhibition at 10 µM in data set [10] came out at 36%. For the same compound, in data set [6], the “SI (pEBOV) (CC50/EC50)” value stood at 61.2. In addition, in data set [11], the “metabolic stability in mouse liver microsomes CLint” value amounted to 260 ± 80 mL/min/mg protein. Also, the “EC50 (EBOV)” value in [4] is “inactive”. The EC50 in [7] amounted to 4.9 µM. Moreover, the CC50 at 24 h in data set [8] turned out to be 300 µM. The half-life at 10 µM in [12] came to 46 ± 2 min; in data set [13] it was 10 ± 3 min.
Regarding `CCN(CC)CCC(=O)Nc1ccccc1Sc1cc(Cl)ccc1[N+](=O)[O-]` [compound 13, N-(2-((5-Chloro-2-nitrophenyl)thio)phenyl)-3-(diethylamino)propanamide], in data set [1], the “prediction of CNS penetration” value was “SNC +”. For the same compound, in data set [9], the “metabolic stability in human liver microsomes CLint” value worked out at 36 ± 8 mL/min/mg protein. Further, in data set [10], the inhibition at 10 µM is -5%. In addition, in data set [6], the “SI (pEBOV) (CC50/EC50)” value is 16.9. The “metabolic stability in mouse liver microsomes CLint” value in [11] came out at 390 ± 60 mL/min/mg protein. In addition, the “SI (CC50/EC50), replicative EBOV” value in data set [4] was found to be 3.3. The concentration for a half-maximal effect (EC50) amounted to 44.5 µM in data set [4] and 8.87 µM in [7]. The CC50 at 24 h in [8] was 150 µM. The half-life at 10 µM in data set [12] came out at 16 ± 3 min; in data set [13], 6.4 ± 0.9 min.
In the case of `O=C(CCNCCc1ccccc1)Nc1ccccc1Sc1cc(Cl)ccc1[N+](=O)[O-]` [compound 14, N-(2-((5-Chloro-2-nitrophenyl)thio)phenyl)-3-(phenethylamino)propanamide], the “antiviral activity” value in data set [6] was “no activity”. Further, the inhibition at 10 µM in data set [7] worked out at 23%. Further, the CC50 in data set [8] is greater than 200 µM.
With `O=C(CCNCCC1CCN(Cc2ccccc2)CC1)Nc1ccccc1Sc1cc(Cl)ccc1[N+](=O)[O-]` [compound 15, 3-((2-(1-Benzylpiperidin-4-yl)ethyl)amino)-N-(2-((5-chloro-2-nitrophenyl)thio)phenyl)propanamide], the “antiviral activity” value in [6] is given as “no activity”. In addition, the inhibition at 10 µM in data set [7] was less than 75%. This compound also had a CC50 at 24 h in [8] of 9 µM.
As for `O=C(CNCCC1CCN(Cc2ccccc2)CC1)Nc1ccccc1Nc1cc(Cl)ccc1[N+](=O)[O-]` [compound 16, 2-((2-(1-Benzylpiperidin-4-yl)ethyl)amino)-N-(2-((5-chloro-2-nitrophenyl)amino)phenyl)acetamide], in data set [1], the “prediction of CNS penetration” value is listed as “SNC +”. Further, in [9], the “metabolic stability in human liver microsomes CLint” value is listed as 12 ± 2 mL/min/mg protein and the “increase in metabolic stability in human microsomes” value (“increase in metabolic stability” for short) is given as 105%. Further, the inhibition at 10 µM in [10] was -44%. In addition, in data set [14], the “STD-NMR competition with imipramine” value is listed as “both compounds target the same binding site of EBOV-GP” and the “binding to EBOV-GP by STD-NMR” value is recorded as “binds to the protein”. In [11], the “metabolic stability in mouse liver microsomes CLint” value was 310 ± 50 mL/min/mg protein. Besides, the EC50 in data set [4] is 4.42 µM. Further, the EC50 in data set [7] amounted to 2.43 µM. This compound yielded a CC50 at 24 h in data set [8] of 10 µM. Further, in data set [12], the half-life at 10 µM amounted to 47 ± 7 min. Moreover, the “effect on binding of EBOV-GP to NPC1 domain C (ELISA)” value in [15] is “interferes with the interaction between NPC1 and EBOV-GP”. The compound also yielded a half-life at 10 µM in data set [13] of 8 ± 1 min.
Consider `O=C(CCN1CCCC1)Nc1ccccc1Nc1cc(Cl)ccc1[N+](=O)[O-]` [compound 17, N-(2-((5-Chloro-2-nitrophenyl)amino)phenyl)-3-(pyrrolidin-1-yl)propanamide], for which the “prediction of CNS penetration” value in [1] is recorded as “SNC +”. In addition, the “metabolic stability in human liver microsomes CLint” value in data set [9] is given as 4.19 ± 0.02 mL/min/mg protein. In addition, the “increase in metabolic stability” value in [9] is reported as 195%. In data set [10], the inhibition at 10 µM was -133%. Also, the “SI (pEBOV) (CC50/EC50)” value in data set [6] was 27.9. In addition, the “metabolic stability in mouse liver microsomes CLint” value in data set [11] is listed as 130 ± 17 mL/min/mg protein. Moreover, the “SI (CC50/EC50), replicative EBOV” value in data set [4] is 38.5. Moreover, the figures for the EC50 in data set [4] and in data set [7] were 6.48 µM and 8.94 µM, respectively. The compound also gave a CC50 at 24 h in [8] of 250 µM. In addition, the half-life at 10 µM in data set [12] was found to be 136.2 ± 0.5 min; in data set [13] it was 20 ± 3 min.
`CCN(CC)CCC(=O)Nc1ccccc1Nc1cc(Cl)ccc1[N+](=O)[O-]` [compound 18, N-(2-((5-Chloro-2-nitrophenyl)amino)phenyl)-3-(diethylamino)propanamide]: in [1], the “prediction of CNS penetration” value is reported as “SNC +”. In data set [9], the “metabolic stability in human liver microsomes CLint” value came out at 9.1 ± 0.7 mL/min/mg protein and the “increase in metabolic stability” value is recorded as 294%. In addition, the inhibition at 10 µM in data set [10] amounted to 9%. Moreover, the “SI (pEBOV) (CC50/EC50)” value in data set [6] was 19.6. In addition, the “metabolic stability in mouse liver microsomes CLint” value in data set [11] is 180 ± 70 mL/min/mg protein. In addition, in data set [4], the “SI (CC50/EC50), replicative EBOV” value amounted to 5.2 and the EC50 turned out to be 28.7 µM. Moreover, in data set [7], the concentration giving a half-maximal response (EC50) is 7.65 µM. This compound also had a CC50 at 24 h in [8] of 150 µM. In [12], this compound came in with a half-life at 10 µM of 63 ± 5 min. This compound yielded a half-life at 10 µM in data set [13] of 14 ± 6 min.
Take `O=C(CCNCCc1ccccc1)Nc1ccccc1Nc1cc(Cl)ccc1[N+](=O)[O-]` [compound 19, N-(2-((5-Chloro-2-nitrophenyl)amino)phenyl)-3-(phenethylamino)propanamide]: in [6], the “antiviral activity” value was “inactive”. In addition, the inhibition at 10 µM in data set [7] was found to be 15%. The CC50 at 24 h in data set [8] is 15 µM.
